Results reported in ChEMBL document CHEMBL3868605, “Flavans with potential anti-inflammatory activities from Zephyranthes candida” (Bioorg Med Chem Lett, 2016).

What was measured:
[1] = Cytotoxicity against mouse RAW264.7 cells assessed as cell survival rate at 200 uM after 24 hrs in absence of LPS by MTT assay; assay type: toxicity; conditions: read-out: Survival
[2] = Antiinflammatory activity in mouse RAW264.7 cells assessed as inhibition of LPS-induced nitric oxide production after 24 hrs in presence of LPS by Griess assay; assay type: functional, cell-based; conditions: RAW264.7, 24 h
[3] = Cytotoxicity against mouse RAW264.7 cells assessed as cell survival rate at 200 uM after 24 hrs in presence of LPS by MTT assay; assay type: toxicity; conditions: read-out: Survival

SMILES	viability at 24 h, 200 µM [1]	IC50 [2]	viability at 24 h, 200 µM [3]
COc1ccc2c(c1)O[C@H](c1ccccc1)[C@H](O)C2	119%	17.3 µM	104%
COc1ccc([C@@H]2CCc3ccc(O)cc3O2)cc1O[C@@H]1O[C@H](CO)[C@@H](O)[C@H](O)[C@H]1O	123%	16.1 µM	114%
COc1ccc([C@@H]2CCc3ccc(O[C@@H]4O[C@H](CO)[C@@H](O)[C@H](O)[C@H]4O)cc3O2)cc1O	104%	21.5 µM	116%
C[C@@H]1C[C@H]2[C@@H]3CCC4=CC(=O)C=C[C@]4(C)[C@@]3(F)[C@@H](O)C[C@]2(C)[C@@]1(O)C(=O)CO [DEXAMETHASONE]	91%	0.63 µM	100%
